Laboratory results: patent US20250250582A1, “Plant Cells and Plants Modified to Increase Herbicide Resistance and Stress Tolerance and Methods of Using the Same” (The Board of Trustees of the University of Arkansas, priority 2018, published 2025)
Several values for one entry are separate records, joined by “and”; a condition that tells them apart may be missing. Equal values may be shown once.

Columns and labels:
[1] = test system: multiple-resistant E. colona (ECO-R); test: RNA-sequencing differential gene expression, herbicide-treated vs nontreated ECO-R; conditions: 24 h
Source text: Pure-line generated seed of each accession were germinated in pots containing potting soil within a temperature/light controlled growth chamber set to a 14-hr day length, 33 C day temperature, and 24 C night time to simulate environmental conditions early in the rice growing season. A single plant was maintained in each of the pots and used for the treatments; two pots were used as individual biological replicates. […] Pots for each of the respective treatments were labeled as either ECO-R/S-T for the treated samples and ECO-R/S-N for the non-treated counterpart. To minimize the effect that the sprayer may play in the application, both plants of the ECO-R and ECO-S were treated at the same time. After approximately 30 minutes, allowing for the plants to dry, the treated and non-treated plants of both accessions were moved back into the growth chamber. Precisely 24-hours after application, the aboveground portion of each of the plants were removed and immediately frozen in liquid nitrogen to cease all biological function. Samples were then transferred to RNAlater™-ICE (Invitrogen, Carlsbad CA, USA) for shipment to the Clemson University Genomics Institute (CUGI), in Clemson, South Carolina.
RNA was extracted from the young leaf tissues of both replications for the ECO-R and ECO-S, T and N samples, at Clemson University. Total RNA was extracted with a kit according to the manufactures instructions. The extracted RNA was treated with DNase (Invitrogen, Calsbad, CA, USA) to remove any DNA contamination prior to further processing. The samples were prepared for sequencing by CUGI. For library preparation, the TruSeq Stranded Total RNA kit (Illumina Inc., San Diego, CA, USA) was used according to the instructions provided by the manufacturer to produce a paired-end library for sequencing. Ribosomal RNA was removed using target-specific oligonucleotides paired with rRNA removal beads, removing all cytoplasmic and mitochondrial rRNA that may result in poor quality results. RNA was fragmented and reverse transcribed to cDNA using random primers, followed by a second strand cDNA synthesis. Each fragment is then ligated with an additional ‘A’ and an adapter for sequencing. The PCR enriched product is then used to create the final cDNA library. All samples were sequenced on an Illumina Hiseq 2500 platform housed in the Holdings Cancer Center at the Medical University of South Carolina, Charleston, SC, USA. Samples, regardless of treatments or replication were ran across three lanes to reduce sequencing errors from the equipment. The resulting data were processed by CUGI.
A de novo transcriptome was assembled from the treatments described for this experiment as well as several treatments, which included herbicides profiled in ECO-R. The treatments were applied to both ECO-R and ECO-S samples with two replications as described previously. In total, 20 individual plants, from both the ECO-R and ECO-S accessions, as well as T and NT samples, were used for the assembly. The transcriptome was assembled using the Trinity RNA-Seq pipeline (Broad Institute, Cambridge, MA, USA). Raw data were assessed for quality using FastQC (Babraham Institute, Cambridge, UK) and then processed to remove adapter sequences and low quality bases using a sliding window method. The processed data were then rerun using FastQC to ensure high quality reads. Using the TrinityRNASeq 2.2.0 software, the samples were normalized, by replication, using a coverage size of 100 and kmer of 32. The normalized reads were then assembled as transcripts and genes using Trinity with the stranded library set as the default.

[2] = test system: resistant Echinochloa species; test: Determination of resistance level (visual injury), resistant accessions; format: in vivo, E. colona and E. crus-galli; conditions: visual 3 wk after treatment
Source text: The experiment was repeated once.

[3] = test system: susceptible E. colona (ECO-S); test: Herbicide resistance profile of ECO-S; format: in vivo, Echinochloa colona
Source text: Beginning in 2010, through the 2016 cropping cycle, Echinochloa spp. from throughout the rice producing counties of Arkansas, USA, located along the Mississippi River were sampled for a survey of the current status of herbicide resistance. Seeds were bulk sampled from plants that had matured in rice and soybean production fields, which had survived at least one herbicide application, were collected and sent to the University of Arkansas Altheimer Laboratory in Fayetteville for characterization and evaluation of herbicide resistance to common rice herbicides. […] From this screening program, two populations of E. colona were selected for use in this experiment. […] To establish inbred and homozygous accessions for the experiment, a single plant, verified as resistant/susceptible of ECO-R and ECO-S were grown in isolation to produce seed for further experiments.
Accession source and population profiling. From 2010 to 2016, the University of Arkansas weed physiology group has been collecting putative herbicide-resistant Echinochloa populations from rice production fields throughout the state of Arkansas. […] Collections took place in the late summer to early fall prior to rice harvest; these accessions were bulk sampled by in-field location and farm, with field histories collected when possible. […]

## CCC(=O)Nc1ccc(Cl)c(Cl)c1 [propanil]
[1]; ECO-R-T vs ECO-R-N
  ABC transporter C family member 10 Fold Change: 7.4 fold
  ACC oxidase fold change: −4.5 fold
  ACCase 2 fold change: −10.2 fold
  ACCase fold change: −9.7 fold
  ADP sugar pyrophosphatase fold change: −7.2 fold
  Beta-glucosidase 22 fold change: 3.6 fold
  CYP72A11 Fold Change: 3.1 fold
  CYP72A13 Fold Change: 3.8 fold
  CYP72A15 Fold Change: 2.6 fold and 3.4 fold and 2.9 fold
  CYP89A2 Fold Change: 2.5 fold and 3.8 fold and 3.6 fold
  CYP709B1 Fold Change: 7.0 fold
  ERF7 fold change: 6.7 fold
  ERF060 fold change: 2.1 fold
  GST23 Fold Change: 6.7 fold
  GSTU17 fold change: 7.9 fold
  NADH-cytochrome b5 reductase proteins fold change: < −7.4 fold
  NADP-dependent malic enzyme fold change: −9.3 fold
  Stress enhanced protein 2 fold change: 2.5 fold
  UGT73C2 Fold Change: 4.7 fold
  UGT73D1 fold change: 5.3 fold and 6.9 fold and 4.8 fold
  UGT73E1 fold change: 3.0 fold
  UGT74G1 Fold Change: 4.6 fold and 4.5 fold
  UGT75D1 fold change: 7.4 fold
  UGT83A1 Fold Change: 2.3 fold
  acetyl-coenzyme A synthetase fold change: −8.4 fold
  disease resistance protein RPM1 fold change: 7.1 fold
  ferredoxin 6 fold change: < −2.4 fold
  fructose-1,6-bisphosphatase fold change: −9.3 fold
  glutamine synthetase fold change: −10.5 fold
  malate dehydrogenase fold change: −10.8 fold
  peroxidase 5 fold change: −3.1 fold
  phenolic glucoside malonyltransferase 1 fold change: −3.5 fold
  pyruvate dehydrogenase E1 subunit fold change: < −10.4 fold
  pyruvate phosphate dikinase fold change: −12 fold
  ubiquinol cytochrome-c reductase complex core protein fold change: < −8.6 fold
[1]; ECO-R-T vs ECO-R-N, repressed
  ATP synthase subunit(s) fold change: < −10 fold
  TPS6 repression: 6.1 fold
  sugar transporter ERD6-like 8 repression: 4.2 fold
  sugar transporter SWEET2a repression: 3.8 fold
[1]; ECO-R-T vs ECO-R-N, repressed by as much as
  heat shock proteins fold change: ≤ −9.9 fold
[1]; Echinochloa colona, in vivo
  CYP72A14 fold induction: ~3 fold
[2]; 2 X dose (4480 g ai/ha)
  injury of ECO187: 97%
[2]; 2 X dose, propanil range excludes ECO187
  injury of resistant Echinochloa species: 27-57%
[3]; ECO-S (Example 1)
  tolerance observed: approximately twice
[3]; ECO-S (Example 2)
  tolerance observed: ~3 × field dose
